In patent publication EP3445382B1, “HARUNGANA MADAGASCARIENSIS LEAF EXTRACT FOR USE IN THE TREATMENT AND/OR PREVENTION OF ACNE” (Société d'Exploitation de Produits pour les Industries …, priority 2016, dated 2017):

Assays:
[1] = system: PBMCs; experiment: viability assay (alamarBlue) on LPS-stimulated PBMCs; type: cell-based, human; conditions: 10^-7 M
Experimental: (§1) PBMCs were isolated from whole blood, seeded in 96-well plates and incubated in culture medium for 1 hour. The medium was then replaced by culture medium containing or not (stimulated control) the test compound or the reference compound, i.e., dexamethasone tested at 10^-7 M, and cells were pre-incubated for 1 hour. The inflammatory inducer, LPS (1 µg/ml) was then added and cells were incubated for 24 hours. A non-stimulated control was also performed in parallel. All experimental conditions were performed in n=3.
After incubation, the culture supernatants were collected in order to quantify IL-8, IL-10 and IL-12 release. A viability assay was performed on cells according to a standard alamarBlue® protocol.
After treatment, the cells were incubated with alamarBlue® reduced in resorufin via the mitochondrial reduction reactions of metabolically active cells. This transformation is proportional to the number of living cells. The optical density (OD) at 570nm was recorded using a microplate reader (VERSAmax, Molecular Devices).

[2] = system: IL-8 release by LPS-stimulated PBMCs; experiment: IL-8 release by LPS-stimulated PBMCs (ELISA); type: cell-based; conditions: Homo sapiens, PBMC; 10^-7 M; LPS 1 µg/ml, 24 hours
Experimental: (§2) In the present example, the potential anti-inflammatory effect of HMA extract was investigated in human peripheral blood mononuclear cells (PBMCs) under stimulated conditions. More precisely, the effect of the test compound was evaluated on IL-8, IL-10 and IL-12 release by LPS-stimulated PBMCs using specific ELISA kits.
(§3) The quantification of anti-inflammatory effects was undertaken as follows: Samples of HMA extract to be analyzed were prepared from a stock solution containing 5% (w/v) in glycerol/ultra-pure water (60/40).
as §1
(§4) After incubation, the culture supernatants were collected in order to quantify IL-8, IL-10 and IL-12 release. […]
(§5) The quantity of IL-8, IL-10 and IL-12 released in the culture supernatants was measured using specific ELISA kits according to the supplier's instructions.
(§6) Raw data were analyzed using Microsoft Excel® software. […]

[3] = system: IL-10 release by LPS-stimulated PBMCs; experiment: IL-10 release by LPS-stimulated PBMCs (ELISA); type: cell-based, human; conditions: 10^-7 M, LPS 1 µg/ml, 24 hours
Experimental: as §2, §3, §1, §4, §5, §6

[4] = system: IL-12 release by LPS-stimulated PBMCs; experiment: IL-12 release by LPS-stimulated PBMCs (ELISA); type: cell-based, human; conditions: 10^-7 M, LPS 1 µg/ml
Experimental: as §2, §3, §1, §4, §5, §6

[5] = biological target: T1, pancreatic lipase (PL; 3.1.1.3) (Homo sapiens, UniProt P16233); experiment: lipase activity, biochemical test with radioactive triolein substrate; conditions: 1000 nM; 2 hours at 37 °C
T1 sequence (P16233 17-465): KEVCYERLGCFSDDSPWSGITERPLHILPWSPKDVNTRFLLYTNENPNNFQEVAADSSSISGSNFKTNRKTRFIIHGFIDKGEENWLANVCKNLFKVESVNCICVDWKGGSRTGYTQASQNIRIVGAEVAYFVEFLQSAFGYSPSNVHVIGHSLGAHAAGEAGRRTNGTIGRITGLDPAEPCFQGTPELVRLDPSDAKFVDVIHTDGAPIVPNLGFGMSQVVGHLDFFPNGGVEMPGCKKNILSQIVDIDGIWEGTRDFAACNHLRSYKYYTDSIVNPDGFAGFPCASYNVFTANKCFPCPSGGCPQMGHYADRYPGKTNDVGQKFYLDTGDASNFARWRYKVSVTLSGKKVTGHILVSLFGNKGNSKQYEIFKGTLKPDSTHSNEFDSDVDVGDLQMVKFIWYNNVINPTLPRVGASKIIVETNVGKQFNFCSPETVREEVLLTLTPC
Experimental: In the present example, the effect of HMA extract was evaluated on the lipase activity with a biochemical test using a radioactive substrate. The lipase catalyzes the hydrolysis of glycerol-ester (glycerides) and long chain fatty acid emulsions. The substrate of this enzyme is not a simple molecule but a non-aqueous phase of aggregated lipids. The usual method to quantify the lipase activity is titration (pH variation) which is not often efficient for the testing of inhibitory compounds and generates several artifacts. An alternative and more efficient method (followed in the present example) was to use a radioactive complex lipid substrate.
The quantification of lipase activity was undertaken as follows: Samples of HMA extract to be analyzed were prepared from a stock solution containing 5% (w/v) in glycerol/ultra-pure water (60/40).
The compound and the reference (Orlistat tested at 1000 nM) were incubated for 2 hours at 37 °C in presence of the enzyme, pancreatic lipase (PL; 3.1.1.3) at 125 U/ml and the radioactive substrate (3.34 µCi/tube, stable emulsion of triolein at 5.25 mM corresponding to a mix of cold and titriated triolein). A negative control was performed by incubating the substrate alone, without enzyme in the reaction mix, in order to determine the background signal. […]
as §6

[6] = acellular lipid peroxidation, TBARS production (hemin-induced, phosphatidylcholine micelles); type: biochemical; conditions: 10 µM, hemin 5 µM, 1 hour at 37 °C
Experimental: In the present example, the effect of HMA extract was evaluated on oxidative stress. More specifically, its protective effect against lipid peroxidation (acellular reaction) was evaluated by measuring the production of thiobarbituric acid reactive substances (TBARS). The quantification of anti-oxidant capacity was undertaken as follows: Samples of HMA extract to be analyzed were prepared from a stock solution containing 5% (w/v) in glycerol/ultra-pure water (60/40). […] Additional control conditions were also included in the experimental design: without inducer (non-activated condition), 'Interference' controls (test compound added to the reactive medium without micelles of lipids to assess a potential auto-fluorescence of compounds) and 'Quenching' controls (test compound added at the end of reaction to check for potential quenching of the signal directly by the test compounds). […] TBARS thus produced were then evaluated by fluorescence measurement (λex 540 nm; λem 590 nm). The results are expressed as TBARS equivalent, representing the antioxidant activity expressed as Trolox equivalent of the test compound. Raw data were analyzed using Microsoft Excel® software. […]

C[C@@H]1C[C@H]2[C@@H]3CCC4=CC(=O)C=C[C@]4(C)[C@@]3(F)[C@@H](O)C[C@]2(C)[C@@]1(O)C(=O)CO [Dexamethasone, dexamethasone]
Viability % stimulated control [1]: 88 % stimulated control
inhibition at 0.1 µM [2]: 72%
% Inhibition (I) or % stimulation (S) [3]: 32 (I) %
inhibition at 0.1 µM ([3]; Homo sapiens, PBMC, inhibition (I), read-out: % Inhibition (I) or % stimulation (S)): 32%
% Inhibition ([4]; 24 hours): >100%
inhibition at 0.1 µM ([4]; Homo sapiens, PBMC, 24 h): 100%

CCCCCCCCCCC[C@@H](C[C@@H]1OC(=O)[C@H]1CCCCCC)OC(=O)[C@H](CC(C)C)NC=O [Orlistat]
inhibition at 1 µM [5]: 41%

Cc1c(C)c2c(c(C)c1O)CCC(C)(C(=O)O)O2 (centres unmarked) [Trolox, 6-hydroxy-2,5,7,8-tetramethylchroman-2-carboxylic acid]
% Inhibition [6]: 72%
